# Where two headings read alike, the source gives them in different places. Marks after values point to notes of the source that are not given here.
# What was measured:
# Male mice (C57BL/6) = experiment: Reversal of memantine-induced brain activation ([14C]2DG uptake) in mice; format: in vivo; conditions: for L.A.D. (lowest active dose) for significant (p<0.05) reduction of 2DG uptake in the hippocampus compared to memantine response: mice, s.c., memantine 20 mg/kg s.c.
# Experimental: Reversal of Memantine-Induced Brain Activation in Mice NMDA receptor hypofunction is hypothesized to be involved in schizophrenia.
# Autoradiographic assessment of radiolabeled [^14C]-2-deoxyglucose ([^14C]2DG) uptake is commonly used to investigate brain activation. In humans, cerebral blood flow is increased in specific brain regions after administration of a subanaesthetic dose of ketamine.
# Male mice (C57BL/6, weight 24-28 g, fasted overnight; n=10 animals per group) were treated with vehicle or test compound (s.c.) in randomized order (t=0 min). Memantine (20 mg/kg, s.c.) was injected 30 min later (t=30 min). At t=45 min, [^14C]2DG (0.16 μCi/g) was administered intraperitoneally (i.p.), followed by a 45 min uptake period. Animals were decapitated (t=90 min), plasma glucose levels measured, the brain removed, rapidly frozen and stored at −20° C. until sectioned. Brain sections were exposed together to a precalibrated [^14C]standard on film, which was developed after four days of exposure. Local tissue [^14C]concentration (nCi/mg tissue equivalent—TEQ-) in each region of interest was determined.
# Data was analyzed statistically using a two-way ANOVA analysis followed by post-hoc tests (memantine response versus reversal by the compound). The results are shown in table 5 below, expressed as lowest active dose (L.A.D.) required to exert a statistically significant (p<0.05) reduction of 2DG uptake in the hippocampus compared to memantine response.
# male NMRI mice = experiment: Phencyclidine (PCP)-induced hyperlocomotion in mice; format: in vivo; conditions: for ED50: Mus musculus; for ED50 PCP-Inh. (estimated): estimated ED50 (n = 3 per dose; 4-fold separation between doses)
# Experimental: On the day of experiments, the mice were brought into the procedural room. They were housed individually and allowed to acclimate for at least a half hour prior to testing. Although the studies were conducted during the light cycle (from 8:00 to 16:00 h), the procedure room was only sparsely lit (3 to 30 LUX) to provide better contrast for the video tracking. Local lighting was used for the injection procedures. During each trial, an individual mouse was placed in an open field arena (grey PVC cylinder with a height of 40 cm and a diameter of 22.5 cm). Each arena was placed on an infrared LED (8×8 LEDs)-lit box (white PVC squared box; 40×40 cm^2; height 12.5 cm). Each mouse was placed in the center of the arena and allowed to explore freely for 30 min. After each trial, the arena was cleaned with a wet and subsequently with a dry cleaning cloth. An infrared sensitive tube camera and a white light source (in arena: 4-7 LUX) were mounted to the ceiling above the observation chamber to record and input activity to a computer. Animal behavior was recorded and analyzed using the Noldus Ethovision XT Video Tracking System (Version 3.1; Noldus, Wageningen, The Netherlands). The total distance traveled (cm) was calculated. Data were then exported to data management systems for further analysis and reporting.
# Test compound or solvent was administered at a pre-defined time before measurement (standard: 30 min) to male NMRI mice that were challenged with phencyclidine (PCP; 5 mg/kg, s.c.) 30 min before measurement. Activity was measured for a period of 30 min.
# human mGluR2 receptor = target: T1, human mGluR2 receptor (Homo sapiens, UniProt Q14416); experiment: [35S]GTPγS binding assay (PAM); format: biochemical; conditions: in presence of glutamate at predetermined EC20, membranes from CHO cells transfected with human mGluR2; for EC50: read-out: GTPγS -hR2 PAM pEC50 (converted)
# T1 construct: expressed in transfected cells; host or cells: CHO cells (membranes)
# T1 sequence (Q14416 19-872): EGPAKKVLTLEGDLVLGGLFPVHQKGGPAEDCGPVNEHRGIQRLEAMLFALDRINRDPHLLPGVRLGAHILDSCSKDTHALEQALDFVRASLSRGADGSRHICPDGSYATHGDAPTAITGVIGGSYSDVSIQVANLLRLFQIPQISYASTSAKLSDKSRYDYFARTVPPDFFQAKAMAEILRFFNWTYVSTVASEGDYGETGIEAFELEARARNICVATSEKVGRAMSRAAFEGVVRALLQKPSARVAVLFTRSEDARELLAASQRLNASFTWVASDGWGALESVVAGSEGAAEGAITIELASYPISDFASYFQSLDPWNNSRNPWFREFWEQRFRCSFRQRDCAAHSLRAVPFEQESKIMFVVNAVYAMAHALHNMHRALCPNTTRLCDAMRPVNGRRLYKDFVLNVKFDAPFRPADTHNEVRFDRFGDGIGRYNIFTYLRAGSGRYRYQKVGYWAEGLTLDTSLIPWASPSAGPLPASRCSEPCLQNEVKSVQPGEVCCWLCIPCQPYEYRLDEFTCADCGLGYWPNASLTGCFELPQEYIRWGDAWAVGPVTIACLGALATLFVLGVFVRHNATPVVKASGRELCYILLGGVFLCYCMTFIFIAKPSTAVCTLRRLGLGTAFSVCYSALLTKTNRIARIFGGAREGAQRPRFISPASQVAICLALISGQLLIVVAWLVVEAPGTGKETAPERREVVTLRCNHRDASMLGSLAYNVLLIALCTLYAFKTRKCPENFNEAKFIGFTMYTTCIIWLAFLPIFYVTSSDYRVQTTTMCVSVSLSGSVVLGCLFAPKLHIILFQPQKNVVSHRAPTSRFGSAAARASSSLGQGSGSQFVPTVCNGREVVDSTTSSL
# Experimental: [^35S]GTPγS binding assay
# The [^35S]GTPγS binding assay is a functional membrane-based assay used to study G-protein coupled receptor (GPCR) function whereby incorporation of a non-hydrolysable form of GTP, [^35S]GTPγS (guanosine 5′-triphosphate, labelled with […] ^35S), is measured.
# CHO-cells were cultured to pre-confluence and stimulated with 5 mM butyrate for 24 h, prior to washing in PBS, and then collected by scraping in homogenisation buffer (50 mM Tris-HCl buffer, pH 7.4, 4° C.). Cell lysates were homogenized briefly using an ultra-turrax homogenizer. The homogenate was centrifuged at 16,000 RPM (Sorvall RC-5C plus rotor SS-34) for 10 minutes and the supernatant discarded. The pellet was resuspended in 5 mM Tris-HCl, pH 7.4 and centrifuged again (18,000 RPM, 20 min, 4° C.). The final pellet was resuspended in 50 mM Tris-HCl, pH 7.4 and stored at −80° C. in appropriate aliquots before use. Protein concentration was determined by the Bradford method (Bio-Rad, USA) with bovine serum albumin as standard.
# Measurement of mGluR2 positive allosteric modulatory activity of test compounds was performed as follows. Test compounds and glutamate were diluted in assay buffer containing 10 mM HEPES acid, 10 mM HEPES salt, pH 7.4, 100 mM NaCl, 3 mM MgCl2 and 10 μM GDP. Human mGlu2 receptor-containing membranes were thawed on ice and diluted in assay buffer supplemented with 14 μg/ml saponin. Membranes were pre-incubated with compound alone or together with a predefined (˜EC20) concentration of glutamate (PAM assay) for 30 min at 30° C. After addition of [^35S]GTPγS (f.c. 0.1 nM) microplates were shaken briefly and further incubated to allow [^35S]GTPγS incorporation on activation (30 minutes, 30° C.). Final assay mixtures contained 7 μg of membrane protein in 10 mM HEPES acid, 10 mM HEPES salt, pH 7.4, 100 mM NaCl, 3 mM MgCl2, 10 μM GDP and 10 μg/ml saponin. Total reaction volume was […] Reactions were terminated by rapid filtration through Unifilter-96 GF/B filter plates (Packard, Meriden, Conn.) using a 96-well Packard filtermate harvester. Filters were washed 6 times with ice-cold 10 mM NaH2PO4/10 mM Na2HPO4, pH 7.4. Filters were then air-dried, and 40 μl of liquid scintillation cocktail (Microscint-O) was added to each well. Membrane-bound radioactivity was counted in a Microplate Scintillation and Luminescence Counter from Packard.
# obtained in the presence of EC20 of mGluR2 agonist glutamate to determine positive allosteric modulation (PAM)—were generated using the Lexis software interface (developed at J&J). Data were calculated as % of the control glutamate response, defined as the maximal response that is generated upon addition of glutamate alone. Sigmoid concentration-response curves plotting these percentages versus the log concentration of the test compound were analyzed using non-linear regression analysis. The concentration producing half-maximal effect is then calculated as EC50.
# All compounds were tested in presence of mGluR2 agonist, glutamate at a predetermined EC20 concentration, to determine positive allosteric modulation (GTPγS-PAM). pEC50 values were calculated from a concentration-response experiment of at least 10 concentrations.
# male Wiga Wistar rats = experiment: Conditioned avoidance response (CAR) test; format: in vivo; conditions: for ED50: Rattus norvegicus, po
# From the text: The apparatus consisted of an inner box surrounded by an outer box. The inner box was composed of four walls of transparent, synthetic material (length×width×height: 30×30×30 cm), an open top, and a grid floor made of 15 pairs of iron bars (2 mm diameter; 6 mm inter-bar distance). Odd and even bars were connected with a source of alternative current (1.0 mA; Coulbourn Instruments Solid State Shocker/Distributor), which could be interrupted by a switch. The outer box was composed of the same material (length×width×height: 40×40×36 cm), also with an open top, with a distance of 5 cm between the inner and outer box on all sides. To decrease the amount of environmental stimuli, three walls of the outer box were made non-transparent. The front wall was left transparent to allow the necessary inspection of the animal during the test. The upper edge of the outer and inner box served as a target for the rats on which to jump with fore- and hind-paws, respectively.
# From their arrival in the laboratory on the experimental day, male Wiga Wistar rats (230±30 g) were housed in individual cages provided with bedding material.
# Latency to avoidance was recorded. The median avoidance response obtained over the three experimental sessions for each rat were used for further calculations.
# [1] = sc, read-out: ED50 PCP-Inh. (estimated)
# [2] = mice, PCP 5 mg/kg s.c., criterion total distance <5500 counts, not marked as oral, read-out: ED50 PCP-Inh.
# [3] = compound administered orally, criterion median avoidance latency >8 s, read-out: ED50 CAR-Inh.
# [4] = compound administered orally, criterion median avoidance latency >8 s
SMILES,melting point [°C],EC50 (human mGluR2 receptor) [nM],GTPγS -hR2 PAM pEC50 (human mGluR2 receptor),L.A.D. (lowest active dose) for significant (p<0.05) reduction of 2DG uptake in the hippocampus compared to memantine response (Male mice (C57BL/6)),ED50 (male NMRI mice; [2]) [mg/kg],also measured
"O=C(CCCN1CCC(O)(c2ccc(Cl)cc2)CC1)c1ccc(F)cc1 [haloperidol, reference compound]",–,–,–,–,–,effect on memantine-induced brain glucose metabolism / 2DG uptake (in words) (Male mice (C57BL/6); mouse brain): inactive
"FC(F)(F)Cc1nnc2c(Cl)c(-c3ccc(OC4CCOCC4)c(Cl)c3)ccn12 [Co. No. 7, 7-(3-Chloro-4-pyranyl-4-oxy-phenyl)-8-chloro-3-(2,2,2-trifluoro-ethyl)-1,2,4-triazolo[4,3-a]pyridine]",186.7,174,–,–,10,–
"Cc1ccc(Oc2ccc(-c3ccn4c(CC5CC5)nnc4c3Cl)cc2F)c(C)n1 [Co. No. 14, 8-Chloro-3-cyclopropylmethyl-7-{4-[(2,6-dimethylpyridin-3-yl)oxy]-3-fluorophenyl}[1,2,4]triazolo[4,3-a]pyridine]",207.2,42.7,–,–,18,ED50 (male Wiga Wistar rats; [3]): 24.6 mg/kg
Cc1ccc(Oc2ccc(-c3ccn4c(CC5CC5)nnc4c3C(F)(F)F)cc2F)c(C)n1 [Co. No. 4],–,10.2,–,≦10 mg/kg,15.2,"ED50 (male Wiga Wistar rats; compound administered orally, estimated ED50 (n = 3 per dose; 4-fold separation between doses), read-out: ED50 CAR-Inh. (estimated)): 20 mg/kg; ED50 (male Wiga Wistar rats; not marked as oral, estimated ED50 (n = 3 per dose; 4-fold separation between doses), read-out: ED50 CAR-Inh. (estimated)): 7.9 mg/kg"
Cc1cc(Oc2ccc(-c3ccn4c(CC5CC5)nnc4c3Cl)cc2F)ccn1 [Co. No. 15],–,–,6.65,≦10 mg/kg,–,"ED50 CAR-Inh. (male Wiga Wistar rats; [4]): ≧40*^ mg/kg; ED50 PCP-Inh. (male NMRI mice; mice, PCP 5 mg/kg s.c., criterion total distance <5500 counts, not marked as oral): 20 mg/kg"
"Cc1ccc(Oc2ccc(-c3ccn4c(CC(F)(F)F)nnc4c3Cl)cc2F)c(C)n1 [Co. No. 3, 7-[3-Fluoro-4-(2′,6′-dimethyl-pyridin-3-yloxy)-phenyl]-8-chloro-3-(2,2,2-trifluoro-ethyl)-1,2,4-triazolo[4,3-a]pyridine]",164.5,45.7,–,–,16.2,"ED50 (male Wiga Wistar rats; [3]): 24.6 mg/kg; ED50 (male Wiga Wistar rats; not marked as oral, criterion median avoidance latency >8 s, read-out: ED50 CAR-Inh.): 18.6 mg/kg"

# Further lines, with some results ahead:
melting point [°C],EC50 (human mGluR2 receptor) [nM],GTPγS -hR2 PAM pEC50 (human mGluR2 receptor),SMILES,L.A.D. (lowest active dose) for significant (p<0.05) reduction of 2DG uptake in the hippocampus compared to memantine response (Male mice (C57BL/6)),ED50 (male NMRI mice; [2]) [mg/kg],also measured
> 300,145,–,"CCc1cc(Oc2ccc(-c3ccn4c(CC5CC5)nnc4c3Cl)cc2F)ccn1 [Co. No. 48, 3-Cyclopropylmethyl-7-[4-(2-ethyl-pyridin-4-yloxy)-3-fluoro-phenyl]-8-chloro-[1,2,4]triazolo[4,3-a]pyridine]",≦10 mg/kg,–,ED50 (male NMRI mice; [1]): 12.6 mg/kg
211.1,17.8,–,"Fc1cc(-c2ccn3c(CC4CC4)nnc3c2C(F)(F)F)ccc1Oc1ccnc(C2CC2)c1 [Co. No. 46, 3-Cyclopropylmethyl-7-[4-(2-cyclopropyl-pyridin-4-yloxy)-3-fluoro-phenyl]-8-trifluoromethyl-[1,2,4]triazolo[4,3-a]pyridine]",≦10 mg/kg,–,ED50 (male NMRI mice; [1]): 20 mg/kg
–,–,8.38,FC(F)(F)c1c(-c2ccc(Oc3ccnc(C4CC4)c3)c(Cl)c2)ccn2c(CC3CC3)nnc12 [Co. No. 54],–,–,ED50 CAR-Inh. (male Wiga Wistar rats; [4]): >40* mg/kg
–,–,7.03,Fc1cnccc1Oc1ccc(-c2ccn3c(CC4CC4)nnc3c2C(F)(F)F)cc1 [Co. No. 63],–,–,"ED50 PCP-Inh. (estimated) (male NMRI mice; mice, PCP 5 mg/kg s.c.): 1.58^a) mg/kg"
–,–,6.59,FC(F)(F)c1c(-c2ccc(N3CCNCC3)c(Cl)c2)ccn2c(CC3CC3)nnc12 [Co. No. 73],–,–,"ED50 PCP-Inh. (estimated) (male NMRI mice; mice, PCP 5 mg/kg s.c.): 12.6^a) mg/kg"
–,–,7.90,COc1ccc(CNc2ccc(-c3ccn4c(CC5CC5)nnc4c3C(F)(F)F)cc2)cn1 [Co. No. 58],–,–,ED50 CAR-Inh. (male Wiga Wistar rats; [4]): ≧40*^ mg/kg
144,170,–,"CCOCc1nnc2c(C)c(-c3ccc(Oc4ccc(C)nc4C)c(F)c3)ccn12 [Co. No. 42, 8-Methyl-3-ethoxymethyl-7-{3-fluoro-4-[(2,6-dimethylpyridin-3-yl)oxy]phenyl}[1,2,4]triazolo[4,3-a]pyridine]",5 mg/kg,–,ED50 (male NMRI mice; [1]): 20 mg/kg

# — patent US8716480B2, “7-aryl-1,2,4-triazolo[4,3-a]pyridine derivatives and their use as positive allosteric modulators of mGluR2 receptors” (Janssen Pharmaceuticals, Inc., priority 2009, dated 2014)
